Results reported in ChEMBL document CHEMBL4507282, “Data for DCP probe BI-1950” (2021).

What was measured:
[1] = biological target: Cyclin-dependent kinase 19 (Homo sapiens) (UniProt Q9BWU1); settings: Compound concentration 1000.0 nM
[2] = biological target: Myosin light chain kinase family member 4 (Homo sapiens) (UniProt Q86YV6); settings: Compound concentration 1000.0 nM
[3] = biological target: Dual serine/threonine and tyrosine protein kinase (Homo sapiens) (UniProt Q6XUX3); settings: Compound concentration 1000.0 nM
[4] = biological target: Eukaryotic translation initiation factor 2-alpha kinase 1 (Homo sapiens) (UniProt Q9BQI3); settings: Compound concentration 1000.0 nM
[5] = biological target: RAC-gamma serine/threonine-protein kinase (Homo sapiens) (UniProt Q9Y243); settings: Compound concentration 1000.0 nM
[6] = biological target: Serine/threonine-protein kinase Nek2 (Homo sapiens) (UniProt P51955); settings: Compound concentration 1000.0 nM
Sequence of Serine/threonine-protein kinase Nek2 (Homo sapiens) (P51955 whole entry): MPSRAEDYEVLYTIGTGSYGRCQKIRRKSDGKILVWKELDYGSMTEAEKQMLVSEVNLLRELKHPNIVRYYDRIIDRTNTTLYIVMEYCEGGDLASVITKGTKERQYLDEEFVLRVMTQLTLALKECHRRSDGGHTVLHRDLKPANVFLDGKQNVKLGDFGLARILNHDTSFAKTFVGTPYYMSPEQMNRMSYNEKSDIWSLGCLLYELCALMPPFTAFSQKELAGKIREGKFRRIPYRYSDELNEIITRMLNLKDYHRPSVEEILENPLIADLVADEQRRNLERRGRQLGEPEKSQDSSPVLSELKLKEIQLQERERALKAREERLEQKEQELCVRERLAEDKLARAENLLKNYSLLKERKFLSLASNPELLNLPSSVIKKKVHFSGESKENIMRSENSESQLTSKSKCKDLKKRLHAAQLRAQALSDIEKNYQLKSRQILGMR

[7] = biological target: Mitogen-activated protein kinase 11 (Homo sapiens) (UniProt Q15759); settings: Compound concentration 1000.0 nM
[8] = biological target: Aurora kinase B (Homo sapiens) (UniProt Q96GD4); settings: Compound concentration 1000.0 nM
Sequence of Aurora kinase B (Homo sapiens) (Q96GD4 whole entry): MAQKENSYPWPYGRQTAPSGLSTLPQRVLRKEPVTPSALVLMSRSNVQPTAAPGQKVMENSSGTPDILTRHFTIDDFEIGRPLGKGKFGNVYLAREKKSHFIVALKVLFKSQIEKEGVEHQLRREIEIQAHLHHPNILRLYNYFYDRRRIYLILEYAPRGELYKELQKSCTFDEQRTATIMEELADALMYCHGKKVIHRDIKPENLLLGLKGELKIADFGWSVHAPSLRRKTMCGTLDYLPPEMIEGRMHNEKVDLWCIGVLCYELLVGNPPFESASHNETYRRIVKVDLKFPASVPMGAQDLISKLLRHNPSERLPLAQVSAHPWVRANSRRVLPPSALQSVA

[9] = biological target: NT-3 growth factor receptor (Homo sapiens) (UniProt Q16288); settings: Compound concentration 1000.0 nM
[10] = biological target: Non-receptor tyrosine-protein kinase TYK2 (Homo sapiens) (UniProt P29597); settings: Compound concentration 1000.0 nM
[11] = biological target: Serine/threonine-protein kinase Sgk2 (Homo sapiens) (UniProt Q9HBY8); settings: Compound concentration 1000.0 nM
Sequence of Serine/threonine-protein kinase Sgk2 (Homo sapiens) (Q9HBY8 whole entry): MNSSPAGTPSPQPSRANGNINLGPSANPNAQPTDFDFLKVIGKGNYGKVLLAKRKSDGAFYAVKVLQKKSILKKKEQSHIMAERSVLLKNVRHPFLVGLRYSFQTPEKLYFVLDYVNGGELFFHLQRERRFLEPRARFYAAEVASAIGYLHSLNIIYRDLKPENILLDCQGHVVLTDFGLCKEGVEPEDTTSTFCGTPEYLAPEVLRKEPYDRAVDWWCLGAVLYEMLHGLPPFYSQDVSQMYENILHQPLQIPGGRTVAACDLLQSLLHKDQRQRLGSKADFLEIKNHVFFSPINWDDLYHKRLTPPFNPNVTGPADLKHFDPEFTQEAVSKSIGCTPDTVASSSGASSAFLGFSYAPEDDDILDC

[12] = biological target: Alpha-1B adrenergic receptor (Homo sapiens) (UniProt P35368); settings: Compound concentration 10.0 uM
Sequence of Alpha-1B adrenergic receptor (Homo sapiens) (P35368 whole entry): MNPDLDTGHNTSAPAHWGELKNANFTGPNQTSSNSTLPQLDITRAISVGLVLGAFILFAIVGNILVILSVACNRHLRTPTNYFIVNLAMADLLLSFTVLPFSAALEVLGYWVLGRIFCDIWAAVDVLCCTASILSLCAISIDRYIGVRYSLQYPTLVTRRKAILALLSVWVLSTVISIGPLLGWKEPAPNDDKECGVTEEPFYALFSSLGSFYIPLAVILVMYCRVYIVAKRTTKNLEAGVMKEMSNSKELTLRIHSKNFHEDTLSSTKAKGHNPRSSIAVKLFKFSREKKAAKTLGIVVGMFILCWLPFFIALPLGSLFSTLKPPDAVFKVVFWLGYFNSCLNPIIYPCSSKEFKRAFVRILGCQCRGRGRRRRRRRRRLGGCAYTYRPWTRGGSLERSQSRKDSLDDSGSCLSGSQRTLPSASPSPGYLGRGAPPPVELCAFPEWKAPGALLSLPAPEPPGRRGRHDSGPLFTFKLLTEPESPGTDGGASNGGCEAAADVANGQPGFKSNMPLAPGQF

[13] = biological target: Dual specificity tyrosine-phosphorylation-regulated kinase 1B (Homo sapiens) (UniProt Q9Y463); settings: Compound concentration 1000.0 nM
[14] = biological target: Serine/threonine-protein kinase ICK (Homo sapiens) (UniProt Q9UPZ9); settings: Compound concentration 1000.0 nM
[15] = biological target: Ephrin type-A receptor 7 (Homo sapiens) (UniProt Q15375); settings: Compound concentration 1000.0 nM
[16] = biological target: Mitogen-activated protein kinase 15 (Homo sapiens) (UniProt Q8TD08); settings: Compound concentration 1000.0 nM
[17] = biological target: Bone morphogenetic protein receptor type-1A (Homo sapiens) (UniProt P36894); settings: Compound concentration 1000.0 nM
[18] = biological target: Serine/threonine-protein kinase PknB (Mycobacterium tuberculosis) (UniProt P9WI81); settings: Compound concentration 1000.0 nM
[19] = biological target: Mast/stem cell growth factor receptor Kit (Homo sapiens) (UniProt P10721); settings: Compound concentration 1000.0 nM
[20] = biological target: Serine/threonine-protein kinase PAK 4 (Homo sapiens) (UniProt O96013); settings: Compound concentration 1000.0 nM
Sequence of Serine/threonine-protein kinase PAK 4 (Homo sapiens) (O96013 whole entry, looked up): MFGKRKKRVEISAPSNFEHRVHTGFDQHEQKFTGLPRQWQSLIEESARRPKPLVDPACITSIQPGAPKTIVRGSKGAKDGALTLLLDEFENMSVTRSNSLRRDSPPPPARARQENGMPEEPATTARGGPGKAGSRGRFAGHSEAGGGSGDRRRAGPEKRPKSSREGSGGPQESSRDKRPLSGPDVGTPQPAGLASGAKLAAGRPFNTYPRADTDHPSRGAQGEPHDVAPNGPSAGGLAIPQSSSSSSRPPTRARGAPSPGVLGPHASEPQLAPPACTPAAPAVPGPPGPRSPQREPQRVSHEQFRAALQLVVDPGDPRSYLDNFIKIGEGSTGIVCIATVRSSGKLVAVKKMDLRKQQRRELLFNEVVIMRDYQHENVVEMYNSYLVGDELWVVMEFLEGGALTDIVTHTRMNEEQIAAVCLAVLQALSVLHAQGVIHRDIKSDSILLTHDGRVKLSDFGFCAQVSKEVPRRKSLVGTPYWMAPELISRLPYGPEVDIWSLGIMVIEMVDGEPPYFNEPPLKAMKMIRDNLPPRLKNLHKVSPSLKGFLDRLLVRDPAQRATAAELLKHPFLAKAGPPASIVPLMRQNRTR

[21] = biological target: Serine/threonine-protein kinase RIO1 (Homo sapiens) (UniProt Q9BRS2); settings: Compound concentration 1000.0 nM
[22] = biological target: Death-associated protein kinase 2 (Homo sapiens) (UniProt Q9UIK4); settings: Compound concentration 1000.0 nM
[23] = biological target: Tyrosine-protein kinase JAK1 (Homo sapiens) (UniProt P23458); settings: Compound concentration 1000.0 nM
[24] = biological target: Mitogen-activated protein kinase kinase kinase 10 (Homo sapiens) (UniProt Q02779); settings: Compound concentration 1000.0 nM
[25] = biological target: Cyclin-dependent kinase 4 (Homo sapiens) (UniProt P11802); settings: Compound concentration 1000.0 nM
Sequence of Cyclin-dependent kinase 4 (Homo sapiens) (P11802 whole entry, canonical isoform): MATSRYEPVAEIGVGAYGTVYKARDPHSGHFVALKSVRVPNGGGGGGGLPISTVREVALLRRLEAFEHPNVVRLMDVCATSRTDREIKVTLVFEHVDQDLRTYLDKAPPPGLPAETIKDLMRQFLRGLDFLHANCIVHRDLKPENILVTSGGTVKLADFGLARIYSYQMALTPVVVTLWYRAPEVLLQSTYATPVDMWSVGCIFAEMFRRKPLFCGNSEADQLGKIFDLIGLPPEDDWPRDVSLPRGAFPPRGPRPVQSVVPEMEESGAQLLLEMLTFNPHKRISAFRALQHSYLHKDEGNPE

[26] = tested on: Phosphatidylinositol 4,5-bisphosphate 3-kinase catalytic subunit alpha isoform (Homo sapiens), P42336 [E545K]; settings: Compound concentration 1000.0 nM
Sequence of Phosphatidylinositol 4,5-bisphosphate 3-kinase catalytic subunit alpha isoform (Homo sapiens), P42336 [E545K] (P42336 whole entry E545K, canonical isoform): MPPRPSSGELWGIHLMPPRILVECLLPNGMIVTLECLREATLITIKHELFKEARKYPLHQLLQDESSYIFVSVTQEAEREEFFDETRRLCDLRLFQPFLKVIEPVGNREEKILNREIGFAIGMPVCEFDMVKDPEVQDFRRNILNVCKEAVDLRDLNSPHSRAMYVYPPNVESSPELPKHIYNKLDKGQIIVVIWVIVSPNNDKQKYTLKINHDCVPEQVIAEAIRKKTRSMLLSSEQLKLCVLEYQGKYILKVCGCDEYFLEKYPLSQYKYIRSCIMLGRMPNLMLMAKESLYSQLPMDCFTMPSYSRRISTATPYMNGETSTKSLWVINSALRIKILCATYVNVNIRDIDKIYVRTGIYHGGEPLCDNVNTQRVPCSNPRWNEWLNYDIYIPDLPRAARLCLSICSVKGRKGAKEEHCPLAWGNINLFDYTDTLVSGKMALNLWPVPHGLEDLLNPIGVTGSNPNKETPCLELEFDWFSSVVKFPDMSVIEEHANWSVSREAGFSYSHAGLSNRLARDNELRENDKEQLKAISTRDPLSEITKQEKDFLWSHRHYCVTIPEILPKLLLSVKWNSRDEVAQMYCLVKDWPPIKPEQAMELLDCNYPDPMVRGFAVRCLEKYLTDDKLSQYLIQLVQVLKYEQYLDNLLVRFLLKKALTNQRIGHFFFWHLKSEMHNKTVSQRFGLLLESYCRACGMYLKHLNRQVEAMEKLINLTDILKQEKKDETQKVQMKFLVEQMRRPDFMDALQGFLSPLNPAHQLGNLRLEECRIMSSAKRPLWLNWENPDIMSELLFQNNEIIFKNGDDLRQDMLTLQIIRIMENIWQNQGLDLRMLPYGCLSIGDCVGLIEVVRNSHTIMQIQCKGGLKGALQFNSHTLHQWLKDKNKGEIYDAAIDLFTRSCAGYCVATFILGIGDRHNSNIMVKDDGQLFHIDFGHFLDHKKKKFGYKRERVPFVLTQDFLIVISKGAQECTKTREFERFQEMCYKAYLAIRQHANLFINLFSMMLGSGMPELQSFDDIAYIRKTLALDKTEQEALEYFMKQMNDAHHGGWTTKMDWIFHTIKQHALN

[27] = biological target: Tyrosine-protein kinase SYK (Homo sapiens) (UniProt P43405); settings: Compound concentration 1000.0 nM
[28] = biological target: Beta-adrenergic receptor kinase 1 (Homo sapiens) (UniProt P25098); settings: Compound concentration 1000.0 nM
[29] = biological target: Mitogen-activated protein kinase 13 (Homo sapiens) (UniProt O15264); settings: Compound concentration 1000.0 nM
[30] = biological target: Receptor tyrosine-protein kinase erbB-4 (Homo sapiens) (UniProt Q15303); settings: Compound concentration 1000.0 nM
[31] = biological target: GABA-A receptor; anion channel (Rattus norvegicus) (UniProt O09028+P15431+P18506+P18508+P19969+P20236+P23574+P23576+P28471+P28473+P30191+P62813+P63079+P63138+Q91ZM7+Q9ES14); settings: Compound concentration 10.0 uM
[32] = biological target: Calcium/calmodulin-dependent protein kinase type 1G (Homo sapiens) (UniProt Q96NX5); settings: Compound concentration 1000.0 nM
[33] = biological target: Serine/threonine-protein kinase TAO2 (Homo sapiens) (UniProt Q9UL54); settings: Compound concentration 1000.0 nM
[34] = tested on: Epidermal growth factor receptor (Homo sapiens), P00533 [UNDEFINED MUTATION]; settings: Compound concentration 1000.0 nM
[35] = biological target: Cyclin-dependent kinase 11B (Homo sapiens) (UniProt P21127); settings: Compound concentration 1000.0 nM
[36] = biological target: 5'-AMP-activated protein kinase catalytic subunit alpha-2 (Homo sapiens) (UniProt P54646); settings: Compound concentration 1000.0 nM
[37] = biological target: Mu-type opioid receptor (Homo sapiens) (UniProt P35372); settings: Compound concentration 10.0 uM
[38] = biological target: cAMP-dependent protein kinase catalytic subunit PRKX (Homo sapiens) (UniProt P51817); settings: Compound concentration 1000.0 nM
[39] = biological target: Calcium/calmodulin-dependent protein kinase type 1D (Homo sapiens) (UniProt Q8IU85); settings: Compound concentration 1000.0 nM
Sequence of Calcium/calmodulin-dependent protein kinase type 1D (Homo sapiens) (Q8IU85 whole entry, looked up): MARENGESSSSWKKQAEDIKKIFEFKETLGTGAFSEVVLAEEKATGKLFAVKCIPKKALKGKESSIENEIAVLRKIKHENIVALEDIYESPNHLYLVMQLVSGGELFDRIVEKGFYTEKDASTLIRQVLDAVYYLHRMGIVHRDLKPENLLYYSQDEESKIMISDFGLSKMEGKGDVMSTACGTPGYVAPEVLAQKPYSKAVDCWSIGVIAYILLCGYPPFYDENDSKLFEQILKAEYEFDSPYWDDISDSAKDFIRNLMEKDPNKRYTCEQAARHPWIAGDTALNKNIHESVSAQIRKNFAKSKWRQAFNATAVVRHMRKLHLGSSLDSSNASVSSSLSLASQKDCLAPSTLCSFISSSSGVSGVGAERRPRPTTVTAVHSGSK

[40] = biological target: Mitogen-activated protein kinase kinase kinase 4 (Homo sapiens) (UniProt Q9Y6R4); settings: Compound concentration 1000.0 nM
[41] = biological target: Receptor-type tyrosine-protein kinase FLT3 (Homo sapiens) (UniProt P36888); settings: Compound concentration 1000.0 nM
Sequence of Receptor-type tyrosine-protein kinase FLT3 (Homo sapiens) (P36888 whole entry): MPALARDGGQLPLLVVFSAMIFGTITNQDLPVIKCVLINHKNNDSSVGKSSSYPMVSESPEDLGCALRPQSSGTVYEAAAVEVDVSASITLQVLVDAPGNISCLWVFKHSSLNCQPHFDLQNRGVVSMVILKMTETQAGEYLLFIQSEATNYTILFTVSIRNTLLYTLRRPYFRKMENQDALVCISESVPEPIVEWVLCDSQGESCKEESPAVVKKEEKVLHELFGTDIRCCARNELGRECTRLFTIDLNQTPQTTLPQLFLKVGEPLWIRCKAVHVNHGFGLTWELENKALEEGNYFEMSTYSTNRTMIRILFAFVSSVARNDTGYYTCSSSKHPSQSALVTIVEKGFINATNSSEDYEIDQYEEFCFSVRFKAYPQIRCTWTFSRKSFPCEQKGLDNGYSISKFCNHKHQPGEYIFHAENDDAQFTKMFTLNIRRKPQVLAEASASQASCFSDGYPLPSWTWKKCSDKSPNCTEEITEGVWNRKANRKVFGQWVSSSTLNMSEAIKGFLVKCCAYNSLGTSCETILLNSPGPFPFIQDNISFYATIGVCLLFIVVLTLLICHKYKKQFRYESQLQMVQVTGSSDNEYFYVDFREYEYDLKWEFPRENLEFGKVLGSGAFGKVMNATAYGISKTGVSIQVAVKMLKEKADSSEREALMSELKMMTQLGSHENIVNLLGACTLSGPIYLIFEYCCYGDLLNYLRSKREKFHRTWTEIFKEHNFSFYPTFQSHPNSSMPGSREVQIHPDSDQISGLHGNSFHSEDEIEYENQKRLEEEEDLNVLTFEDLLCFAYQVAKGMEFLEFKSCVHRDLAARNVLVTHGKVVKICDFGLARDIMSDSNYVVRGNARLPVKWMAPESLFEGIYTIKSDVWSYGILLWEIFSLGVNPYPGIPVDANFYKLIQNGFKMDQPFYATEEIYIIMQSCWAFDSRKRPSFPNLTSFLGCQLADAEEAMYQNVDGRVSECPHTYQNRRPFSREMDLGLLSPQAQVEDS

[42] = tested on: Tyrosine-protein kinase ABL1 (Homo sapiens), P00519 [H396P]; settings: Compound concentration 1000.0 nM
[43] = biological target: Casein kinase II subunit alpha (Homo sapiens) (UniProt P68400); settings: Compound concentration 1000.0 nM
[44] = biological target: Tyrosine-protein kinase HCK (Homo sapiens) (UniProt P08631); settings: Compound concentration 1000.0 nM

C[C@H](NC(=O)c1cnc2n1[C@](C)(Cc1ccc(C#N)cc1)C(=O)N2c1cc(Cl)c(F)c(Cl)c1)C(=O)NC1(c2ccccn2)CC1 [BI 1950]
inactive: residual activity [1] 81% | residual activity [2] 100% | residual activity [3] 87% | residual activity [4] 93% | residual activity [5] 60% | residual activity [6] 95% | residual activity [7] 100% | residual activity [8] 100% | residual activity [9] 100% | residual activity [10] 100% | residual activity [11] 94% | inhibition [12] 2.35% | residual activity [13] 100% | residual activity [14] 100% | residual activity [15] 84% | residual activity [16] 100% | residual activity [17] 98% | residual activity [18] 100% | residual activity [19] 91% | residual activity [20] 100% | residual activity [21] 100% | residual activity [22] 100% | residual activity [23] 100% | residual activity [24] 100% | residual activity [25] 100% | residual activity [26] 100% | residual activity [27] 100% | residual activity [28] 100% | residual activity [29] 100% | residual activity [30] 100% | inhibition [31] -4.17% | residual activity [32] 100% | residual activity [33] 92% | residual activity [34] 100% | residual activity [35] 100% | residual activity [36] 100% | inhibition [37] 17.4% | residual activity [38] 100% | residual activity [39] 99% | residual activity [40] 97% | residual activity [41] 100% | residual activity [42] 91% | residual activity [43] 81% | residual activity [44] 100%

C[C@@]1(Cc2ccc(C#N)cc2)C(=O)N(c2cc(Cl)cc(Cl)c2)c2ncc(C(=O)NC3(c4nc(C5CCC5)no4)CC3)n21 [BI 9446]
inactive: residual activity [1] 76% | residual activity [2] 100% | residual activity [3] 95% | residual activity [4] 100% | residual activity [5] 100% | residual activity [6] 83% | residual activity [7] 100% | residual activity [8] 100% | residual activity [9] 100% | residual activity [10] 100% | residual activity [11] 100% | inhibition [12] 23.8% | residual activity [13] 80% | residual activity [14] 100% | residual activity [15] 92% | residual activity [16] 100% | residual activity [17] 100% | residual activity [18] 96% | residual activity [19] 98% | residual activity [20] 98% | residual activity [21] 100% | residual activity [22] 84% | residual activity [23] 100% | residual activity [24] 100% | residual activity [25] 93% | residual activity [26] 94% | residual activity [27] 100% | residual activity [28] 100% | residual activity [29] 100% | residual activity [30] 100% | inhibition [31] -8.68% | residual activity [32] 100% | residual activity [33] 100% | residual activity [34] 97% | residual activity [35] 100% | residual activity [36] 100% | inhibition [37] 31.1% | residual activity [38] 100% | residual activity [39] 100% | residual activity [40] 100% | residual activity [41] 98% | residual activity [42] 96% | residual activity [43] 91% | residual activity [44] 100%
